Data as given in US8207189B2, “Compound having affinity for amyloid” (Nihon Medi-Physics Co., Ltd., priority 2007, dated 2012).

Assays:
[1] = transferability into brain and clearance after intravenous injection; type: in vivo, rat
Experimental: Using Compound 1 (Example 10) and Compound 2 (Example 11), a time course change of radioactive accumulation in brain of male Wistar rats (7-week old) was measured.
A diethyl ether solution of Compound 1 (Example 10) prepared in Example 3, a diethyl ether solution of Compound 2 (Example 11) prepared in Example 6 and a diethyl ether solution of [^123I]-IMPY (Comparative Example 5) prepared in Reference Example 1 were each diluted with 10 mg/mL ascorbic acid-containing physiological saline solution to adjust to a radioactive concentration of 8-12 MBq/mL. 0.05 mL each of the prepared sample solutions was injected under thiopental anesthesia into the tail vein of the rats. The rats were sacrificed by bleeding from abdominal artery, and brains were removed and subjected to measurement of mass of brains and further subjected to measurement of radioactivity (hereinafter referred to as A in this Example) with a single channel analyzer (detector type: SP-20 manufactured by OHYO KOKEN KOGYO Co., Ltd.) 2, 5, 30 and 60 minutes after the injection. Further, the radioactivity level of the rest of the whole body was measured in the same manner as above (hereinafter referred to as B in this Example). Using these measurement results, radioactive distribution per unit weight of brain (% ID/g) at the respective time points were calculated in accordance with the following formula (3).
Three animals were used for the experiment at the respective time points.
Using Compound 4 and Compound 6, a time course change of radioactive accumulation in brain of male Wistar rats (7-week old) was measured.
Compound 4 (Example 22), Compound 6 (Example 23) and a solution of [^123I]-IMPY (Comparative Example 8) prepared above in Reference Example 1 were each diluted with a 10 mg/mL ascorbic acid-containing physiological saline solution to prepare solutions (20-31 MBq/mL in radioactive concentration). 0.05 mL each of the prepared sample solutions was injected under thiopental anesthesia into the tail vein of the respective Wistar rat (7-week old). The rats were sacrificed by bleeding from abdominal artery, and brains were removed and subjected to measurement of mass of brains and further subjected to measurement of radioactivity (hereinafter referred to as A in this Example) with a single channel analyzer (detector type: SP-20 manufactured by OHYO KOKEN KOGYO Co., Ltd.) 2, 5, 30 and 60 minutes after the injection. Further, the radioactivity level of the rest of the whole body was measured in the same manner as above (hereinafter referred to as B in this Example). Using these measurement results, radioactive distribution per unit weight of brain (% ID/g) at the respective time points were calculated in accordance with the following formula (5).

[2] = target: T1, amyloid (aggregated Aβ1-42) injected into amygdaloid nucleus (Homo sapiens, UniProt P05067); experiment: confirmation of imaging of amyloid in brain (autoradiogram, Aβ1-42 injected rats); type: in vivo, rat; conditions: brain slice 60 minutes after intravenous injection, Aβ1-42
T1 construct: Aβ1-42 (manufactured by Wako) was dissolved in phosphate buffer (pH 7.4); purchased Wako
T1 sequence (P05067 672-713): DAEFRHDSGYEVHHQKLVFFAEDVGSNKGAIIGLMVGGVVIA
Experimental: (§1) (1) Aβ1-42 (manufactured by Wako) was dissolved in phosphate buffer (pH 7.4) and shaken at 37° C. for 72 hours, to obtain a 1 mg/mL suspension of aggregated Aβ (hereinafter referred to as amyloid suspension in the Examples).
(§2) (2) 2.5 μL (corresponding to […]) of the amyloid suspension was injected into an amygdaloid nucleus on one side of a male Wistar rat (7-week old). As a control, 2.5 μL of a phosphate buffered physiological saline solution (pH 7.4) was injected into an amygdaloid nucleus on the other side of the rat. The rats were examined 1 day after the injection of the amyloid suspension and the phosphate buffered physiological saline solution (pH 7.4).
(§3) (3) Compound 1 was dissolved in a 10 mg/mL ascorbic acid-containing physiological saline solution to obtain a sample solution (22 MBq/mL in radioactivity concentration in the sample solution). This solution was injected under thiopental anesthesia into the rat through the tail vein (dosage: 0.5 mL, dosed radioactivity: 11-13 MBq equivalent).
(§4) (4) Brain was removed 60 minutes after the injection to prepare a brain slice of 10 μm in thickness with a microtome (type: CM3050S, manufactured by LEICA). The brain slice was exposed to an imaging plate for 20 hours, and then image analysis was carried out by use of a Bio-imaging Analyzer (type: BAS-2500; manufactured by FUJIFILM Corporation).
(§5) Thus, it was confirmed that amyloid was deposited on the slice (FIG. 6b).
(§6) The same procedures as in Example 12 were performed except using a solution of Compound 2 in a 10 mg/mL ascorbic acid as a sample solution (the radioactive concentration of the sample solution was 25 MBq/mL).
(§7) (1) Aβ1-42 (manufactured by Wako) was dissolved in phosphate buffer (pH 7.4) and shaken at 37° C. for 72 hours, to obtain 1 mg/mL of a suspension of aggregated Aβ (hereinafter referred to as amyloid suspension in the Examples).
(§8) (3) A sample solution (30 MBq/mL in radioactivity concentration, Example 24) in which Compound 4 was dissolved in a 10 mg/mL ascorbic acid-containing physiological saline solution and a sample solution (30 MBq/mL in radioactivity concentration, Example 25) in which Compound 6 was dissolved in a 10 mg/mL ascorbic acid-containing physiological saline solution were prepared. This solution was injected under thiopental anesthesia into the rat through the tail vein (dosage: 0.5 mL, dosed radioactivity: 11-15 MBq equivalent).
(§9) Thus, it was confirmed that amyloid was deposited on the slice (FIG. 12 and FIG. 13).

[3] = system: amyloid (aggregated Aβ1-42) injected into amygdaloid nucleus; experiment: as above; type: in vivo, rat; conditions: brain slice 60 minutes after intravenous injection
Experimental: as §1, §2, §3, §4, §5, §6, §7, §8, §9

[4] = partition coefficient based on the octanol extraction method; type: physicochemical; conditions: octanol / 10 mmol/L phosphate buffer pH 7.4; Table 4 (Examples 8-9, Comparative Example 4)
Experimental: Partition coefficients based on the octanol extraction method (hereinafter referred to as log Poctanol) were measured, which are generally known as an indicator of permeability of compounds through the blood-brain barrier (hereinafter referred to as BBB).
A diethyl ether solution of Compound 1 prepared in Example 3 (Example 8), a diethyl ether solution of Compound 2 prepared in Example 6 (Example 9), and a diethyl ether solution of [^123I]-IMPY prepared in Reference Example 1 (Comparative Example 4) were each diluted with 10 mg/mL ascorbic acid-containing physiological saline solution, and adjusted to a radioactive concentration of 20-30 MBq/mL. To 2 mL of octanol, 10 μL each of the prepared sample solutions was added, 2 mL of 10 mmol/L phosphate buffer (pH 7.4) was added, followed by stirring for 30 seconds. After the mixture was centrifuged with a low-speed centrifuge (2000 rpm×60 min.), the octanol layer and the water layer were sampled each in an amount of 1 mL, and subjected to measurement of radioactivity count with an autowell gamma system (Type: ARC-301B, manufactured by Aloka). Using the obtained radioactivity count, log Poctanol was calculated in accordance with the equation (2).
A diethyl ether solution (Example 20) of Compound 4 prepared in Example 16, a diethyl ether solution (Example 21) of Compound 6 prepared in Example 19, and a diethyl ether solution (Comparative Example 7) of [^123I]-IMPY were each diluted with a 10 mg/mL ascorbic acid-containing physiological saline solution to adjust to a radioactive concentration of 20-30 MBq/mL. To 2 mL of octanol, 10 μL each of the prepared sample solution was added, and 2 mL of 10 mmol/L phosphate buffer (pH 7.4) was further added, followed by stirring for 30 seconds. After the mixture was centrifuged with a low-speed centrifuge (2000 rpm×60 min.), the octanol layer and the water layer were sampled each in an amount of 1 mL, and subjected to measurement of radioactivity count with an autowell gamma system (Type: ARC-301B, manufactured by Aloka). Using the obtained radioactivity count, log Poctanol was calculated in accordance with the equation (4).

[5] = system: Salmonella typhimurium TA98; experiment: reverse mutation test (Ames test), TA98; type: cell-based
Experimental: (§10) In order to examine gene mutagenicity of Compound 3, 5 and 8, reverse mutation test using Salmonella typhimurium TA98 and TA100 (hereinafter referred to as Ames test) was conducted.
(§11) The test was conducted without addition of S9mix and with addition of S9mix. Dimethylsulfoxide (DMSO) was used as a negative control. A positive control was 2-(2-furyl)-3-(5-nitro-2-furyl)acrylamide (hereinafter referred to as AF-2) in case S9mix was not added, and 2-aminoanthracene (hereinafter referred to as 2-AA) in case S9mix was added.
(§12) As a sample solution to be added to a test plate, each compound was dissolved in DMSO to prepare a solution at a concentration of 50 mg/mL, and further, each solution was diluted with DMSO to prepare a solution with 7 dosage (geometric ratio 3). As a sample solution for preparing a sample of positive control, when TA98 was used as a test strain without addition of S9mix, a solution of AF-2 (compound concentration: 1 μg/mL) in DMSO was prepared; when TA100 was used as a test strain without addition of S9mix, a solution of AF-2 (compound concentration: 0.1 μg/mL) in DMSO was prepared; when TA98 was used as a test strain with addition of S9mix, a solution of 2-AA (compound concentration: 5 μg/mL) in DMSO was prepared; and when TA100 was used as a test strain with addition of S9mix, a solution of 2-AA (compound concentration: 10 μg/mL) in DMSO was prepared.
(§13) After each sample solution to be examined and a test strain (TA98 or TA100) were mixed together so as to make the addition amount of each sample to be 0.1 mL/plate, the mixture was multilayered using soft agar on a medium of a test plate, and then incubated at 37° C. for 48 hours. Separately, after each sample solution to be examined, S9mix and a test strain were mixed together so as to make the addition amount of each sample to be 0.1 mL/plate, the mixture was multilayered using soft agar on a medium of a test plate, and then incubated at 37° C. for 48 hours. On the other hand, only DMSO was used as a sample solution to perform the same procedure as above for the negative control.

[6] = system: Salmonella typhimurium TA100; experiment: reverse mutation test (Ames test), TA100; type: cell-based
Experimental: as §10, §11, §12, §13

[7] = normal mice, [125I]-labeled, cited from earlier work; for transfer into brain: 2 minutes after administration

Molecule: 2-[4′-(2″-hydroxyethoxy)phenyl]-6-[^123I]iodoimidazo[1,2-a]pyridine [Compound 1]
- Radioactive distribution per unit weight in brain, After 2 min. ([1]; male Wistar rats, intravenous injection, 2 min, Table 5): 0.90 % ID/g
- Radioactive distribution per unit weight in brain, After 5 min. ([1]; male Wistar rats, intravenous injection, 5 min, Table 5): 0.52 % ID/g
- Radioactive distribution per unit weight in brain, After 30 min. ([1]; male Wistar rats, intravenous injection, 30 min, Table 5): 0.06 % ID/g
- Radioactive distribution per unit weight in brain, After 60 min. ([1]; male Wistar rats, intravenous injection, 60 min, Table 5): 0.01 % ID/g
- radioactive accumulation in brain two minutes after the injection (in words) ([1]; rats, intravenous, 2 min): significant radioactive accumulation
- clearance from brain in 60 minutes (in words) ([1]; rats, intravenous, 60 min): rapidly clear away
- accumulation of radioactivity in amygdaloid nucleus on the amyloid-injected side [2]: marked accumulation of radioactivity
- accumulation of radioactivity at sites other than the amyloid injected sites [3]: little radioactive accumulation
- accumulation of radioactivity in amygdaloid nucleus on the physiological saline-injected side [3]: no significant accumulation of radioactivity
- logPoctanol value [4]: 1.8

Molecule: OCCOc1cccc(-c2cn3cc(I)ccc3n2)c1 [Compound 5, 2-[3′-(2″-hydroxyethoxy)phenyl]-6-iodoimidazo[1,2-a]pyridine]
- Mutagenicity, TA98, With addition of S9mix [5]: Negative
- Mutagenicity, TA98, Without addition of S9mix [5]: Negative
- Mutagenicity, TA100, With addition of S9mix [6]: Negative
- Mutagenicity, TA100, Without addition of S9mix [6]: Negative

Molecule: CN(C)c1ccc(-c2nc3ccc(I)cc3s2)cc1 [TZDM, 6-iodo-2-[4′-(N,N-dimethylamino)phenyl]benzothiazole]
- transfer into brain [7]: transferred into brain
- clearance from normal tissues [7]: insufficient in clearance from normal tissues

Molecule: CCOc1ccc(-c2cn3cc(I)ccc3n2)cc1 [Compound 8, 2-(4′-ethoxyphenyl)-6-iodoimidazo[1,2-a]pyridine]
- Mutagenicity, TA98, With addition of S9mix [5]: Negative
- Mutagenicity, TA98, Without addition of S9mix [5]: Negative
- Mutagenicity, TA100, With addition of S9mix [6]: Negative
- Mutagenicity, TA100, Without addition of S9mix [6]: Negative

Molecule: CN(C)c1ccc(/C=C/c2ccc(I)cc2)cc1 [m-I-SB, (E)-4-dimethylamino-4′-iodostilbene]
- transfer into brain [7]: transferred into brain
- clearance from normal tissues [7]: insufficient in clearance from normal tissues

Molecule: OCCOc1ccc(-c2cn3cc(I)ccc3n2)cc1 [Compound 3, 2-[4′-(2″-hydroxyethoxy)phenyl]-6-iodoimidazo[1,2-a]pyridine]
- Mutagenicity, TA98, With addition of S9mix [5]: Negative
- Mutagenicity, TA98, Without addition of S9mix [5]: Negative
- Mutagenicity, TA100, With addition of S9mix [6]: Negative
- Mutagenicity, TA100, Without addition of S9mix [6]: Negative

Molecule: CN(C)c1ccc(-c2nc3ccc(I)cc3o2)cc1 [IBOX, 6-iodo-2-[4′-(N,N-dimethylamino)phenyl]benzoxazole]
- transfer into brain [7]: transferred into brain
- clearance from normal tissues [7]: insufficient in clearance from normal tissues
